Read-outs that look alike come from different tables or passages of the source.
Assays:
HCC2998 = assay: JFCR-39 cytotoxicity screen; format: cell-based
MDA-MB-468 = assay: NCI-60 cytotoxicity screen; details: Homo sapiens, MDA-MB-468, read-out: mean log10 of the GI50 values (converted)
UO-31 = assay: NCI-60 cytotoxicity screen; format: cell-based
RXF 393 = assay: NCI-60 cytotoxicity screen; format: cell-based
CCRF-CEM = assay: NCI-60 cytotoxicity screen; format: cell-based
MDA-MB-231 = assay: JFCR-39 cytotoxicity screen; format: cell-based
HL-60(TB) = assay: NCI-60 cytotoxicity screen; format: cell-based
ACHN = assay: JFCR-39 cytotoxicity screen; format: cell-based
MOLT-4 = assay: NCI-60 cytotoxicity screen; format: cell-based
OVCAR-3 = details: JFCR
HT29 = assay: NCI-60 cytotoxicity screen; format: cell-based
NCI-H460 = assay: NCI-60 cytotoxicity screen; format: cell-based
SF-539 = assay: NCI-60 cytotoxicity screen; format: cell-based
786-0 = assay: NCI-60 cytotoxicity screen; format: cell-based
NCI-H23 = assay: JFCR-39 cytotoxicity screen; format: cell-based
SNB-19 = assay: NCI-60 cytotoxicity screen; format: cell-based
SK-MEL-5 = assay: NCI-60 cytotoxicity screen; format: cell-based
HCT-15 [1] = assay: JFCR-39 cytotoxicity screen; format: cell-based
OVCAR-4 = assay: JFCR-39 cytotoxicity screen; format: cell-based
HCT-116 = assay: NCI-60 cytotoxicity screen; format: cell-based
SK-OV-3 = assay: JFCR-39 cytotoxicity screen; format: cell-based
[2] = test system: NF-κB p65 subunit translocation in OVCAR-3 cells; assay: NF-κB inhibition by immunocytochemical fluorescent staining; format: cell-based, human; details: 5 μM
Description: Inhibition of NF-κB was detected according to Ataie-Kachoie et al.. Briefly, each group of tested cells were seeded on coverslips treated with HCl and ethanol, and autoclaved prior to use. Immunostaining of the p65 subunit of NF-κB was done by permeabilizing the cells with Triton […], then by treating the cells with anti-NF-κB p65 rabbit monoclonal primary antibody [E379] Abcam # ab32536, followed by Alexa Fluor® 488 Donkey anti-rabbit IgG secondary antibody Biolegend # 406416. Nuclei of cells were stained with 4',6-diamidino-2-phenylindole (DAPI). Images were acquired using fluorescence microscope. Tested cells were divided into five groups which are no treatment control, no primary antibody control, PDTC (50 μM) treated control, NSC745885 (5 μM) and NSC757963 (5 μM) treated controls.

HCT-15 [3] = assay: NCI-60 cytotoxicity screen; format: cell-based
U251 = assay: NCI-60 cytotoxicity screen; format: cell-based
A549 = assay: JFCR-39 cytotoxicity screen; format: cell-based
NCI/ADR-RES = assay: NCI-60 cytotoxicity screen; format: cell-based
HS 578T = assay: NCI-60 cytotoxicity screen; format: cell-based
[4] = Homo sapiens, Fig 7, read-out: mean log10 of the GI50 values (converted)
[5] = Homo sapiens, five-dose, read-out: GI50
[6] = Homo sapiens, five-dose, read-out: LC50 (the source's name)
[7] = Homo sapiens, read-out: LC50 (the source's name)

With `O=C1c2ccccc2C(=O)c2c1ccc1nsnc21` [NSC745885, anthra[1,2-c][1,2,5]thiadiazole-6,11-dione] as the compound, how does the TGI (HCC2998) read?
The TGI was 3.9 µM.

What about the GI50 (HCC2998; Homo sapiens, HCC 2998) of the same compound?
The GI50 was 2.1 µM.

And the CC50 (HCC2998; Homo sapiens, HCC 2998, read-out: LC50 (the source's name))?
Its CC50 is 7.5 µM.

What about the GI50 (MDA-MB-468) of the same compound?
The GI50 was 1.82 µM.

And the GI50 (UO-31; [4])?
Its GI50 is 1.78 µM.

And the GI50 (UO-31; [5])?
Its GI50 is 1.62 µM.

What about the CC50 (UO-31; [6]) of the same compound?
Its CC50 is 6.01 µM.

And the TGI (UO-31; five-dose)?
Its TGI is 3.12 µM.

What about the GI50 (RXF 393; Homo sapiens, RXF393, Fig 7, read-out: mean log10 of the GI50 values (converted)) of the same compound?
Its GI50 is 1.74 µM.

And the GI50 (RXF 393; [5])?
The GI50 was 1.75 µM.

What about the CC50 (RXF 393; [6]) of the same compound?
The CC50 was 14.6 µM.

What about the TGI (RXF 393; five-dose) of the same compound?
Its TGI is 4.40 µM.

And the GI50 (CCRF-CEM; [4])?
The GI50 was 1.55 µM.

And the GI50 (CCRF-CEM; [5])?
The GI50 was 1.08 µM.

And the CC50 (CCRF-CEM; [6])?
The CC50 was greater than 100 µM.

What about the TGI (CCRF-CEM; five-dose) of the same compound?
Its TGI is 4.10 µM.

And the TGI (MDA-MB-231)?
Its TGI is 5.5 µM.

What about the GI50 (MDA-MB-231; Homo sapiens) of the same compound?
Its GI50 is 1.4 µM.

And the CC50 (MDA-MB-231; [7])?
The CC50 was 63 µM.

What about the GI50 (HL-60(TB); [4]) of the same compound?
Its GI50 is 0.589 µM.

What about the GI50 (HL-60(TB); [5]) of the same compound?
Its GI50 is 0.16 µM.

And the CC50 (HL-60(TB); [6])?
Its CC50 is 0.99 µM.

What about the TGI (HL-60(TB); five-dose) of the same compound?
Its TGI is 0.39 µM.

And the TGI (ACHN)?
Its TGI is 3.8 µM.

And the GI50 (ACHN; Homo sapiens)?
Its GI50 is 1.9 µM.

And the CC50 (ACHN; [7])?
Its CC50 is 7.6 µM.

And the GI50 (MOLT-4; [4])?
The GI50 was 0.891 µM.

What about the GI50 (MOLT-4; [5]) of the same compound?
Its GI50 is 0.49 µM.

And the CC50 (MOLT-4; [6])?
The CC50 was 4.71 µM.

What about the TGI (MOLT-4; five-dose) of the same compound?
Its TGI is 1.84 µM.

What about the TGI (OVCAR-3) of the same compound?
The TGI was 2.0 µM.

And the GI50 (HT29; Homo sapiens, HT-29, Fig 7, read-out: mean log10 of the GI50 values (converted))?
Its GI50 is 6.03 µM.

What about the GI50 (HT29; Homo sapiens, HT-29, five-dose, read-out: GI50) of the same compound?
Its GI50 is 13.4 µM.

What about the CC50 (HT29; Homo sapiens, HT-29, five-dose, read-out: LC50 (the source's name)) of the same compound?
The CC50 was greater than 100 µM.

And the TGI (HT29; five-dose)?
Its TGI is 50.4 µM.

And the GI50 (NCI-H460; Homo sapiens, NCI-460, five-dose, read-out: GI50)?
Its GI50 is 3.27 µM.

And the CC50 (NCI-H460; Homo sapiens, NCI-460, five-dose, read-out: LC50 (the source's name))?
The CC50 was 47.3 µM.

What about the GI50 (NCI-H460; Homo sapiens, NCI-H460, Fig 7, read-out: mean log10 of the GI50 values (converted)) of the same compound?
The GI50 was 2.45 µM.

And the TGI (NCI-H460; NCI-460, five-dose)?
The TGI was 14.3 µM.

What about the GI50 (SF-539; [4]) of the same compound?
Its GI50 is 1.48 µM.

What about the GI50 (SF-539; [5]) of the same compound?
The GI50 was 1.46 µM.

And the CC50 (SF-539; [6])?
Its CC50 is 5.91 µM.

And the TGI (SF-539; five-dose)?
Its TGI is 2.94 µM.

And the TGI (786-0; 786–0, five-dose)?
Its TGI is 19.3 µM.

And the GI50 (786-0; Homo sapiens, 786-0, Fig 7, read-out: mean log10 of the GI50 values (converted))?
The GI50 was 4.9 µM.

And the GI50 (786-0; Homo sapiens, 786–0, five-dose, read-out: GI50)?
Its GI50 is 6.17 µM.

And the CC50 (786-0; Homo sapiens, 786–0, five-dose, read-out: LC50 (the source's name))?
The CC50 was 50.4 µM.

What about the TGI (NCI-H23) of the same compound?
The TGI was 2.9 µM.

What about the GI50 (NCI-H23; Homo sapiens) of the same compound?
The GI50 was 1.1 µM.

What about the CC50 (NCI-H23; [7]) of the same compound?
Its CC50 is 8 µM.

And the GI50 (SNB-19; [4])?
Its GI50 is 2.04 µM.

And the GI50 (SNB-19; [5])?
The GI50 was 2.28 µM.

What about the CC50 (SNB-19; [6]) of the same compound?
The CC50 was 26 µM.

And the TGI (SNB-19; five-dose)?
Its TGI is 5.82 µM.

What about the GI50 (SK-MEL-5; [4]) of the same compound?
Its GI50 is 1.35 µM.

What about the GI50 (SK-MEL-5; [5]) of the same compound?
The GI50 was 1.58 µM.

And the CC50 (SK-MEL-5; [6])?
Its CC50 is 5.41 µM.

And the TGI (SK-MEL-5; five-dose)?
The TGI was 2.92 µM.

What about the TGI (HCT-15 [1]) of the same compound?
The TGI was 3.4 µM.

And the GI50 (HCT-15 [1]; Homo sapiens)?
Its GI50 is 1.8 µM.

And the CC50 (HCT-15 [1]; [7])?
Its CC50 is 6.3 µM.

And the TGI (OVCAR-4)?
The TGI was 2.9 µM.

And the GI50 (OVCAR-4; Homo sapiens)?
The GI50 was 1.5 µM.

What about the CC50 (OVCAR-4; [7]) of the same compound?
The CC50 was 5.5 µM.

What about the GI50 (HCT-116; [4]) of the same compound?
The GI50 was 2.34 µM.

What about the GI50 (HCT-116; [5]) of the same compound?
The GI50 was 1.93 µM.

And the CC50 (HCT-116; [6])?
The CC50 was greater than 100 µM.

What about the TGI (HCT-116; five-dose) of the same compound?
Its TGI is 5.40 µM.

What about the TGI (SK-OV-3) of the same compound?
Its TGI is 8.3 µM.

And the GI50 (SK-OV-3; Homo sapiens)?
Its GI50 is 2.7 µM.

What about the CC50 (SK-OV-3; [7]) of the same compound?
Its CC50 is 29 µM.

What about the “nuclear translocation of the NF-κB p65 subunit” value [2] of the same compound?
The value was “significantly capable of preventing the nuclear translocation of the NF-κB p65 subunit”.

And the GI50 (HCT-15 [3]; [4])?
The GI50 was 2.04 µM.

What about the GI50 (HCT-15 [3]; [5]) of the same compound?
The GI50 was 1.71 µM.

And the CC50 (HCT-15 [3]; [6])?
Its CC50 is 8.12 µM.

And the TGI (HCT-15 [3]; five-dose)?
Its TGI is 3.72 µM.

And the GI50 (U251; Homo sapiens, U-251, Fig 7, read-out: mean log10 of the GI50 values (converted))?
Its GI50 is 2.51 µM.

And the GI50 (U251; Homo sapiens, U-251, five-dose, read-out: GI50)?
Its GI50 is 1.61 µM.

And the CC50 (U251; Homo sapiens, U-251, five-dose, read-out: LC50 (the source's name))?
The CC50 was 5.44 µM.

And the TGI (U251; five-dose)?
Its TGI is 2.96 µM.

And the TGI (A549)?
The TGI was 41.0 µM.

What about the GI50 (A549; Homo sapiens) of the same compound?
Its GI50 is 19 µM.

And the CC50 (A549; [7])?
The CC50 was 89 µM.

And the GI50 (NCI/ADR-RES; [4])?
The GI50 was 0.891 µM.

What about the GI50 (NCI/ADR-RES; [5]) of the same compound?
Its GI50 is 1.86 µM.

What about the CC50 (NCI/ADR-RES; [6]) of the same compound?
The CC50 was greater than 100 µM.

What about the TGI (NCI/ADR-RES; five-dose) of the same compound?
The TGI was 12.6 µM.

And the TGI (HS 578T; HS 578T, five-dose)?
Its TGI is 5.02 µM.

What about the GI50 (HS 578T; Homo sapiens, Hs-578T, HS578T, Fig 7, read-out: mean log10 of the GI50 values (converted)) of the same compound?
Its GI50 is 2.63 µM.

And the GI50 (HS 578T; Homo sapiens, HS 578T, five-dose, read-out: GI50)?
The GI50 was 1.41 µM.

And the CC50 (HS 578T; Homo sapiens, HS 578T, five-dose, read-out: LC50 (the source's name))?
The CC50 was 56 µM.

Source: publication PMC4839570, “Novel Anthra[1,2-c][1,2,5]Thiadiazole-6,11-Diones as Promising Anticancer Lead Compounds: Biological Evaluation, Characterization & Molecular Targets Determination” (PLoS ONE, 2016)
